# In patent US10765669B2, “Pharmaceutical composition for preventing or treating DYRK-related diseases, containing pyridine-based compound as active ingredient” (KOREA RESEARCH INSTITUTE OF BIOSCIENCE AND BIOTECHNOLOGY, priority 2016, dated 2020):
# What was measured:
# GSK3β = GSK3β (Homo sapiens, UniProt P49841); assay: In vitro CMGC kinase assay, GSK3β; assay type: biochemical; conditions: in vitro kinase panel; next to DYRK1A
# C-met kinase = C-met kinase (Homo sapiens, UniProt P08581); conditions: existing studies; ATP competitive manner; cited from earlier work
# C-met kinase, sequence (P08581 25-1390): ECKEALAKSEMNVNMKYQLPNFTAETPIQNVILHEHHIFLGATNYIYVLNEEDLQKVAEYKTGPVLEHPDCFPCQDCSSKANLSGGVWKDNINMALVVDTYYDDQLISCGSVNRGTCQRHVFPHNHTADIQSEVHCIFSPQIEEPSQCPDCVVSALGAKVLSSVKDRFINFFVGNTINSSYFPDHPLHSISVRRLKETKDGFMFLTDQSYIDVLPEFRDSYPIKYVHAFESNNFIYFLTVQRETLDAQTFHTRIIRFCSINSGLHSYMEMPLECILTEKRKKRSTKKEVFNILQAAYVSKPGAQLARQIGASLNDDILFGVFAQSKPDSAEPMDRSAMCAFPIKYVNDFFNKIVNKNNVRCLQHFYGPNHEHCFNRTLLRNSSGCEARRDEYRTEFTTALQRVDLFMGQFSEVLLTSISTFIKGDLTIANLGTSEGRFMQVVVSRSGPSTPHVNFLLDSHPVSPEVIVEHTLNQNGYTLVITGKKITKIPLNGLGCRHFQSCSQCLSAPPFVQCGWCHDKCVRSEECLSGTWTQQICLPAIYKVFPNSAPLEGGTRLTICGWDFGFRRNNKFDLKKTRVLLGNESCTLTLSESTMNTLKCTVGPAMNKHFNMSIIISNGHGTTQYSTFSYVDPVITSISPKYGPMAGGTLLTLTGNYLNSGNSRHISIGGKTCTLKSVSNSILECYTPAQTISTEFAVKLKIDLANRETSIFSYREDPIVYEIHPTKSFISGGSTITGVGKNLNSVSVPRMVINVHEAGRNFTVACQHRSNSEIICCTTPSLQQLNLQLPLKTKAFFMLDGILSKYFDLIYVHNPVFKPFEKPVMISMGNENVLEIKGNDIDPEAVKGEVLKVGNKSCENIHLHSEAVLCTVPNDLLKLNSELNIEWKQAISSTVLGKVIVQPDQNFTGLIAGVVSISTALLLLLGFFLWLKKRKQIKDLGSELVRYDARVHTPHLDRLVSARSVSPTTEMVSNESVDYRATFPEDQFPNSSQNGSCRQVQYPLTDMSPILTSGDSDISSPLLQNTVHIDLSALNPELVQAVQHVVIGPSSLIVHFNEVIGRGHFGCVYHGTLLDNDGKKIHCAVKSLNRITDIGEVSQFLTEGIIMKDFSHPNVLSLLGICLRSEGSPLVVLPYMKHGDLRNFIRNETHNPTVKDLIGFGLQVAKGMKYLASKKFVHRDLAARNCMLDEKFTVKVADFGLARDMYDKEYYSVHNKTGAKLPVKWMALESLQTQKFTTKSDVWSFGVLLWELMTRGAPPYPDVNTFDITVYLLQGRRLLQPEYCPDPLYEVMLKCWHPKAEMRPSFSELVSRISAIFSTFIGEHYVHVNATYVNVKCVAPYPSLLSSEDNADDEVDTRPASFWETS
# DYRK1A [1] = target: T1, DYRK1A (Homo sapiens, UniProt Q13627); assay: In vitro kinase assay with separated and purified DYRK1A protein; assay type: biochemical
# T1 construct: expressed in transfected cells; host or cells: 293T
# DYRK1A [2] = target: T1, DYRK1A; assay: NFAT signaling reporter (NFAT-RE-luciferase), cell-based DYRK1A efficacy evaluation in 293T cells; conditions: for luciferase increase effect / activity level compared with harmine and CX-4945: 10 μM; for luciferase increase effect: 293T cells, NFAT-RE-luciferase reporter, IM + PMA, DYRK1A overexpressed, among 570 candidates; for activity level compared with harmine and CX-4945: same reporter conditions; for EC50 of luciferase increase effect, fold lower than harmine and CX-4945: NFAT reporter, concentration gradient (FIG. 4); for luciferase activity compared with condition without DYRK1A overexpression: treated with 3 μM, concentration gradient, same conditions
# Experimental: With respect to the 570 compounds identified as candidate DYRK1A inhibitors through the virtual screening, a secondary effect evaluation was carried out using NFAT signaling reporter which is the already well-established cell-based DYRK1A effect evaluation system (FIG. 3). NFAT signaling reporter has a very high level of dependence on DYRK1A, and thus is effective in the identifying experiment of the proper candidate DYRK1A inhibitors. DYRK1A is known to regulate calcineurin/Nuclear Factor of Activated T cells (NFAT) signals and play an important role in the stage of human development process. NFATc1 transcription factor is usually present as a protein that is phosphorylated in the cytoplasm when the Ca^2+ concentration of the cells is increased, NFATc1 is dephosphorylated by calcineurin phosphatase which is a Ca^2+-dependent protein, and NFATc1 is moved into the nucleus. NFATc1 which has entered into the nucleus and protein partner NFATn form a transcription complex, and the complex binds to the promoter of the target gene to induce the target gene expression. In contrast, DYRK1A phosphorylates NFATc1 to inhibit the movement of NFATc1 into the nucleus, and results in the inhibition of the expression of the target gene. The DYRK1A-inhibitory effect of the 570 candidates was confirmed through the transcription activity of NFATc1, and for this, a luciferase reporter containing NFAT response element (NFAT-RE) useful to measure the transcription activity of NFATc1 was used. A NFAT-RE-luciferase reporter was over-expressed in 293T cells, and was then treated with Ionomycin (IM) and phorbol 12-myristate 13-acetate (PMA) to increase the intracellular concentration of Ca^2+. As a result, the expression of luciferase was increased sharply. […] If the candidate drug treatment in this condition inhibits DYRK1A, the luciferase will be increased.
# DYRK1A [3] = target: T1, DYRK1A; assay: Inhibition of Tau protein (Thr212) phosphorylation in 293T cells overexpressing Tau and DYRK1A; assay type: cell-based; conditions: for IC50: 293T cells overexpressing Tau and DYRK1A
# GSK3β, sequence (P49841 whole entry, species assumed): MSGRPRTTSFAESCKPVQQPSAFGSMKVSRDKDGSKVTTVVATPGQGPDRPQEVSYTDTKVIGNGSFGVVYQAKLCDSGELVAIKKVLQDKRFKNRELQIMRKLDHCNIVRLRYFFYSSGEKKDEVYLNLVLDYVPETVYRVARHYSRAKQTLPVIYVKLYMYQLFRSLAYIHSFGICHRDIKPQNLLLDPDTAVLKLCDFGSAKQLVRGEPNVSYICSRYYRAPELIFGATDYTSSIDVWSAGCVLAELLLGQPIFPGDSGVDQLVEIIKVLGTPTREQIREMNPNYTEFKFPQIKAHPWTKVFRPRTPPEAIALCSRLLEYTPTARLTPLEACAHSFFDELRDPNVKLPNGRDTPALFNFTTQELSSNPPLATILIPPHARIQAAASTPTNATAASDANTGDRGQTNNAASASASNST
Compound,inhibitory effect on GSK3β (GSK3β),C-met kinase inhibition (C-met kinase),"inhibition at 0.1 µM (DYRK1A [1]; 100 nM concentration, read-out: inhibitory effect on DYRK1A) [%]",rank of inhibitory effect among DYRK family and CMGC kinases (DYRK1A [1]; in vitro kinase panel (FIG. 6)),IC50 (DYRK1A [1]; predicted from inhibition at 100 nM) [nM],luciferase increase effect (DYRK1A [2]),activity level compared with harmine and CX-4945 (DYRK1A [2]),"EC50 of luciferase increase effect, fold lower than harmine and CX-4945 (DYRK1A [2]) [times]",luciferase activity compared with condition without DYRK1A overexpression (DYRK1A [2]),IC50 (DYRK1A [3]) [nM],"inhibitory effect on Tau phosphorylation, times stronger than harmine, INDY and proINDY (DYRK1A [3]; same experimental conditions)"
CC(=O)N1CCC(n2cc(-c3cnc(N)c(-c4nc5cnccc5o4)c3)cn2)CC1 [formula 2],high inhibitory effect,inhibitors of the C-met kinase,~95,strongest inhibitory effect on DYRK1A,~10,highest luciferase increase effect,clearly higher,10,higher than the luciferase activity of the condition that DYRK1A was not overexpressed,~50,10-60 times
Nc1ncc(-c2cnn(C3CCNCC3)c2)cc1-c1nc2cnccc2o1 [formula 3],,inhibitors of the C-met kinase,,,,highest luciferase increase effect,clearly higher,10,higher than the luciferase activity of the condition that DYRK1A was not overexpressed,,
Cn1cc(-c2cnc(N)c(-c3nc4cnccc4o3)c2)cn1 [formula 4],,,,,,highest luciferase increase effect,clearly higher,,,,
"CCN1/C(=C/C(C)=O)Sc2ccc(OC(C)=O)cc21 [proINDY, reference compound]",,,,,,,,,,~3000,
